Twelve compounds from PubChem BioAssay AID1259407 (Chemical Carcinogenesis Research Information System (CCRIS), 2018) can be followed below.

In this data set the test system is CCRIS mutagenicity, Ames/micronucleus/aberration tests. Nature of the data set: CCRIS mutagenicity studies.
Setting [1] is: Test System: AMES SALMONELLA TYPHIMURIUM, Strain/Indicator: TA98, Metabolic Activation: NONE, Method: PREINCUBATION
Where [2] appears, read: Test System: AMES SALMONELLA TYPHIMURIUM, Strain/Indicator: TA100, Metabolic Activation: NONE, Method: PREINCUBATION
The mark [3] stands for this setting: Test System: AMES SALMONELLA TYPHIMURIUM, Strain/Indicator: TA98, Metabolic Activation: NONE, Method: STANDARD PLATE.
Setting [4] is: Test System: AMES SALMONELLA TYPHIMURIUM, Strain/Indicator: TA100, Metabolic Activation: NONE, Method: STANDARD PLATE.
Where [5] appears, read: Test System: AMES SALMONELLA TYPHIMURIUM, Strain/Indicator: TA1535, Metabolic Activation: NONE, Method: STANDARD PLATE.
The mark [6] stands for this setting: Test System: AMES SALMONELLA TYPHIMURIUM, Strain/Indicator: TA1537, Metabolic Activation: NONE, Method: STANDARD PLATE.
Setting [7] is: Test System: AMES SALMONELLA TYPHIMURIUM, Strain/Indicator: TA98, Metabolic Activation: RAT, LIVER, S-9, AROCLOR 1254, Method: STANDARD PLATE.
Setting [8] is: Test System: AMES SALMONELLA TYPHIMURIUM, Strain/Indicator: TA100, Metabolic Activation: RAT, LIVER, S-9, AROCLOR 1254, Method: STANDARD PLATE.
Setting [9] is: Test System: AMES SALMONELLA TYPHIMURIUM, Strain/Indicator: TA1537, Metabolic Activation: RAT, LIVER, S-9, AROCLOR 1254, Method: STANDARD PLATE.

The source made the active and inactive calls. No rule for the calls is given here.

Consider `N[C@@H]1CCCCN1.[Cl][Pt][Cl]`, for which the mutagenic call was “active; positive” under setting [1]; “active; positive” under setting [2]; “active; positive” (Test System: AMES SALMONELLA TYPHIMURIUM, Strain/Indicator: TA100, Metabolic Activation: RAT, LIVER, S-9, AROCLOR 1254, Method: PREINCUBATION).

For the compound `CC(C)CN(C(=O)CCCl)c1snc2ccccc12`, the mutagenic call was “inactive; negative” under setting [3]; “inactive; negative” (Test System: AMES SALMONELLA TYPHIMURIUM, Strain/Indicator: TA98, Metabolic Activation: S-9, Method: STANDARD PLATE); “inactive; negative” under setting [4]; “inactive; negative” (Test System: AMES SALMONELLA TYPHIMURIUM, Strain/Indicator: TA100, Metabolic Activation: S-9, Method: STANDARD PLATE); “inactive; negative” under setting [5]; “inactive; negative” (Test System: AMES SALMONELLA TYPHIMURIUM, Strain/Indicator: TA1535, Metabolic Activation: S-9, Method: STANDARD PLATE). Besides, the mutagenic call by setting is: under setting [6], “inactive; negative”; (Test System: AMES SALMONELLA TYPHIMURIUM, Strain/Indicator: TA1537, Metabolic Activation: S-9, Method: STANDARD PLATE) “inactive; negative”.

Consider `CC(Br)C(N)=O` (configuration not stated), for which the mutagenic call is “active; positive” (Test System: AMES SALMONELLA TYPHIMURIUM, Strain/Indicator: TA100, Metabolic Activation: MOUSE, LIVER, S-9, AROCLOR 1254, Method: STANDARD PLATE) and “active; positive” under setting [4].

`O=[N+]([O-])c1cc2c3c(ccc4cc([N+](=O)[O-])cc(c43)CC2)c1`: the mutagenic call is, setting by setting: (Test System: AMES SALMONELLA TYPHIMURIUM, Strain/Indicator: TA98(1,8-DNP6), Metabolic Activation: NONE, Method: STANDARD PLATE) “active; positive”; (Test System: AMES SALMONELLA TYPHIMURIUM, Strain/Indicator: TA98(NR), Metabolic Activation: NONE, Method: STANDARD PLATE) “active; positive”; under setting [3], “active; positive”.

`CC(=O)NS(=O)(=O)c1ccc(N)cc1`: the mutagenic call was “inactive; negative” (End Point: IN VITRO CHROMOSOMAL ABERRATIONS, Test System: CHINESE HAMSTER OVARY CELLS, Metabolic Activation: NONE); “inactive; negative” (End Point: IN VITRO CHROMOSOMAL ABERRATIONS, Test System: CHINESE HAMSTER OVARY CELLS, Metabolic Activation: RAT, LIVER, S-9, AROCLOR 1254); “inactive; negative” (Test System: AMES SALMONELLA TYPHIMURIUM, Strain/Indicator: TA98, Metabolic Activation: HAMSTER, LIVER, S-9, AROCLOR 1254 (10%), Method: PREINCUBATION); “inactive; negative” under setting [1]; “inactive; negative” (Test System: AMES SALMONELLA TYPHIMURIUM, Strain/Indicator: TA98, Metabolic Activation: RAT, LIVER, S-9, AROCLOR 1254 (10%), Method: PREINCUBATION); “inactive; negative” (Test System: AMES SALMONELLA TYPHIMURIUM, Strain/Indicator: TA100, Metabolic Activation: HAMSTER, LIVER, S-9, AROCLOR 1254 (10%), Method: PREINCUBATION). Besides, the mutagenic call under setting [2] is “inactive; negative”; the mutagenic call (Test System: AMES SALMONELLA TYPHIMURIUM, Strain/Indicator: TA100, Metabolic Activation: RAT, LIVER, S-9, AROCLOR 1254 (10%), Method: PREINCUBATION) is “inactive; negative”; the mutagenic call (Test System: AMES SALMONELLA TYPHIMURIUM, Strain/Indicator: TA1535, Metabolic Activation: HAMSTER, LIVER, S-9, AROCLOR 1254 (10%), Method: PREINCUBATION) was “inactive; negative”; the mutagenic call (Test System: AMES SALMONELLA TYPHIMURIUM, Strain/Indicator: TA1535, Metabolic Activation: NONE, Method: PREINCUBATION) was “inactive; negative”; the mutagenic call (Test System: AMES SALMONELLA TYPHIMURIUM, Strain/Indicator: TA1535, Metabolic Activation: RAT, LIVER, S-9, AROCLOR 1254 (10%), Method: PREINCUBATION) was “inactive; negative”; the mutagenic call (Test System: AMES SALMONELLA TYPHIMURIUM, Strain/Indicator: TA1537, Metabolic Activation: HAMSTER, LIVER, S-9, AROCLOR 1254 (10%), Method: PREINCUBATION) was “inactive; negative”. Moreover, the mutagenic call is “inactive; negative” (Test System: AMES SALMONELLA TYPHIMURIUM, Strain/Indicator: TA1537, Metabolic Activation: NONE, Method: PREINCUBATION) and “inactive; negative” (Test System: AMES SALMONELLA TYPHIMURIUM, Strain/Indicator: TA1537, Metabolic Activation: RAT, LIVER, S-9, AROCLOR 1254 (10%), Method: PREINCUBATION).

On to `Nc1cc2nc3ccccc3nc2cc1O`, for which the mutagenic call was “inactive; negative” (Test System: AMES SALMONELLA TYPHIMURIUM, Strain/Indicator: TA98(1,8-DNP6), Metabolic Activation: NONE, Method: PREINCUBATION); “inactive; negative” (Test System: AMES SALMONELLA TYPHIMURIUM, Strain/Indicator: TA98(1,8-DNP6), Metabolic Activation: S-9, Method: PREINCUBATION); “inactive; negative” under setting [1]; “active; positive” under setting [3]; “active; positive” under setting [7]; “inactive; negative” (Test System: AMES SALMONELLA TYPHIMURIUM, Strain/Indicator: TA98, Metabolic Activation: S-9, Method: PREINCUBATION). The mutagenic call is, setting by setting: (Test System: AMES SALMONELLA TYPHIMURIUM, Strain/Indicator: TA100(OAT-), Metabolic Activation: NONE, Method: PREINCUBATION) “inactive; negative”; (Test System: AMES SALMONELLA TYPHIMURIUM, Strain/Indicator: TA100(OAT-), Metabolic Activation: S-9, Method: PREINCUBATION) “inactive; negative”; under setting [2], “inactive; negative”; under setting [4], “inactive; negative”; under setting [8], “active; positive”; (Test System: AMES SALMONELLA TYPHIMURIUM, Strain/Indicator: TA100, Metabolic Activation: S-9, Method: PREINCUBATION) “inactive; negative”. For the same compound, the mutagenic call is “active; positive” under setting [6]; “active; positive” under setting [9]; “active; positive” (Test System: AMES SALMONELLA TYPHIMURIUM, Strain/Indicator: YG1024, Metabolic Activation: PLANT CELL-FREE EXTRACT, Method: PREINCUBATION); “active; positive” (Test System: AMES SALMONELLA TYPHIMURIUM, Strain/Indicator: YG1024, Metabolic Activation: S-9, Method: PREINCUBATION); “active; positive” (Test System: AMES SALMONELLA TYPHIMURIUM, Strain/Indicator: YG1029, Metabolic Activation: S-9, Method: PREINCUBATION).

In the case of `CN(C)CCCNc1c2ccccc2nc2c(N(CCO)CCO)ccc([N+](=O)[O-])c12`, the mutagenic call is, setting by setting: under setting [3], “active; positive”; under setting [4], “active; positive”.

Consider `Oc1ccc2ccc3c4ccccc4cc4ccc1c2c43`, for which the mutagenic call is, setting by setting: (Test System: AMES SALMONELLA TYPHIMURIUM, Strain/Indicator: TA97, Metabolic Activation: RAT, LIVER, S-9, AROCLOR 1254, Method: STANDARD PLATE) “active; positive”; under setting [3], “active; positive”; under setting [7], “active; positive”; under setting [4], “active; positive”; under setting [8], “active; positive”; under setting [9], “active; positive”. In addition, the mutagenic call (Test System: CHINESE HAMSTER V-79, Strain/Indicator: V-79/8-AZAGUANINE, Metabolic Activation: NONE, Method: STANDARD PLATE) is “active; positive”.

For `CN1CCN(C2=Nc3cc(Cl)ccc3Nc3ccccc32)CC1`, the mutagenic call reads like this: under setting [3], “inactive; negative”; under setting [7], “inactive; negative”; under setting [4], “inactive; negative”; under setting [8], “inactive; negative”; under setting [5], “inactive; negative”; (Test System: AMES SALMONELLA TYPHIMURIUM, Strain/Indicator: TA1535, Metabolic Activation: RAT, LIVER, S-9, AROCLOR 1254, Method: STANDARD PLATE) “inactive; negative”. The mutagenic call under setting [6] was “inactive; negative” and the mutagenic call under setting [9] was “inactive; negative”.

For the compound `Cc1ccccc1C1=C(C(=O)O)O1`, under setting [4], the mutagenic call was “inactive; negative”.

Consider `Fc1ccc(CCl)cc1`, for which the mutagenic call under setting [4] was “inactive; negative”.

As for `COc1ccc(Nc2c3ccccc3nc3ccccc23)cc1`, the mutagenic call under setting [6] was “active; positive”.
